The source of these data is article PMC9966338, “Inhibitory Potential of α-Amylase, α-Glucosidase, and Pancreatic Lipase by a Formulation of Five Plant Extracts: TOTUM-63” (International Journal of Molecular Sciences, 2023).

What is called Vmax is the rate approached at saturating substrate. For orientation: IC50 means the point on the concentration scale where inhibition reaches its midpoint.

One assay has as its system α-amylase. On the set-up: method as in PMID 30050443. Particulars: based on IC50 values; cited from earlier work.
Assay [1] concerns the target T1, α-Glucosidase (maltase from Saccharomyces cerevisiae) (Saccharomyces cerevisiae, UniProt P53341).
T1 construct: purchased Merck/Sigma-Aldrich
The assay can be described thus: α-Glucosidase inhibition kinetics (Lineweaver–Burk, SigmaPlot fit). The class given is biochemical.
Method: α-glucosidase inhibition kinetics was investigated in vitro using the method described in Section 4.2.1. Inhibition models were determined by analysis of the Lineweaver–Burk plots using four concentrations of substrate and four concentrations of test products (including a “0”, without inhibitor). All initial rates were fitted to all enzymatic kinetic models with one substrate and one inhibitor provided by the Enzyme Kinetics Module of Sigma Plot 12 (Systat Software Inc., San Jose, CA, USA), using non-linear least-square regression models to determine the inhibition model and calculate the inhibitory constant (Ki).
Equations (2) and (3) (below) were used for data analysis and corresponded to the inhibition models that best fitted our data according to the SigmaPlot software 12 (Systat Software Inc., San Jose, CA, USA) [73]. […] Ki’ corresponds to the second inhibitor dissociation constant because, in a mixed model, the constants for E + I ↔ EI and ES + I ↔ ESI are different. Factor α, given by SigmaPlot (Systat Software Inc., San Jose, CA, USA), represents the equilibrium between Ki’ and Ki. (2) v =Vmax/1+(Km/[S])×(1+[I]/Ki) (3) v =Vmax/(1+[I]/Ki^’)+Km/[S]×(1+[I]/Ki)

For assay [2], the target named is T2, α-glucosidase (Saccharomyces cerevisiae, UniProt P53341).
T2 construct: purchased Merck/Sigma-Aldrich
T2 sequence (P53341 whole entry): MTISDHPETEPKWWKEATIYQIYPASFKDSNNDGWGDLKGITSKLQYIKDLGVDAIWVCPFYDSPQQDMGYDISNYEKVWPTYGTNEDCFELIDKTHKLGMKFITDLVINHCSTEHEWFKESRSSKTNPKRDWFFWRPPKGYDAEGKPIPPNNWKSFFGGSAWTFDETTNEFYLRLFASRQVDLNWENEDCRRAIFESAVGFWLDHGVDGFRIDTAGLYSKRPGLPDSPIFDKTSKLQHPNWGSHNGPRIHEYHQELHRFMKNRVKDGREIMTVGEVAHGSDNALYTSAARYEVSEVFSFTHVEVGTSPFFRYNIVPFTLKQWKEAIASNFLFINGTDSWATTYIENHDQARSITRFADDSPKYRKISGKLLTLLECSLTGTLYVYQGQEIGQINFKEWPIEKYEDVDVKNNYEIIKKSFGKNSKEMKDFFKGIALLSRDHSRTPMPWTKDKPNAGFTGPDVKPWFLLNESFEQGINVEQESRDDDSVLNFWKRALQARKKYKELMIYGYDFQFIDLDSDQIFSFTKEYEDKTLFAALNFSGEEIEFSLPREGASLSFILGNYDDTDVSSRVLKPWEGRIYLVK
The experiment in a line: Interactions with α-glucosidase by fluorescence spectrum changes. The assay is classed as binding. Particulars: excitation 285 nm, emission 320–440 nm. The protocol:
Potassium phosphate buffer (0.1 M, pH 6.8) was used as the reaction buffer. The final α-glucosidase concentration in the wells was 1.275 mg/mL. For each microplate well, 20 µL of test product in a 50:50 (v:v) water:ethanol mixture (or 20 µL of this solvent mixture for the controls without products), 100 µL of α-glucosidase in buffer (or 100 µL of buffer for the blanks), and 40 µL of buffer were incubated at 25 °C in a microplate reader for 5 min. Then, fluorescence was measured at an excitation of 285 nm and an emission scan ranging from 320 nm to 440 nm.

The subject of assay [3] is α-glucosidase. Particulars: cited from earlier work.
Assay [4] addresses T1, α-Glucosidase (maltase from Saccharomyces cerevisiae). The assay can be described thus: biochemical. The assay is classed as biochemical. The text has this: Chrysanthellin B was purchased from Extrasynthese (Genay, France). 2-(N-morpholino)-ethanesulfonic acid (MES) buffer was purchased from ThermoFisher Scientific (Waltham, Massachusetts, USA). NaN3 was obtained from Carlo Erba Reagents (Val-de-Reuil, France). Pure water was obtained using an Evoqua ultra-pure water production system (Water Technologies, Günzburg, Germany). The RED-NHS protein labeling kit was from NanoTemper Technologies (Munich, Germany).
α-Glucosidase hydrolytic activity was assessed by monitoring the conversion of p-nitrophenyl-α-D-glucopyranoside (PNPg) into p-nitrophenol (PNP). PNP levels were quantified at 405 nm. […] A series of PNP dilutions in buffer was used to generate the standard curve to convert PNP absorbance values into concentrations. The final α-glucosidase concentration corresponded to an activity of 30 µM of PNP/min for negative control without inhibitor. In each microplate well, 20 µL of test products diluted in a 50:50 (v:v) water:ethanol mixture (or 20 µL of this solvent mixture for the negative controls), 20 µL of α-glucosidase in buffer (or 20 µL of buffer for the blanks), and 100 µL of buffer were incubated in a microplate reader at 37 °C for 10 min. Then, 20 µL of PNPg substrate (2.5 mM in buffer) was added to each well to initiate the reaction. A FLUO Star Omega (BMG LabTech, Champigny sur Marne, France) 96-well microplate reader, thermostatically controlled at 37 °C, was used to measure the absorbance at 405 nm, every minute for 30 min. […] (1) % Relative activity=Residual activity/Negative control activity×100

Another assay has as its system lipase. On the set-up: method as in PMID 36105167. Particulars: based on IC50 values; cited from earlier work.

Read-outs that look alike come from different tables or passages of the source.

T1 sequence (P53341 whole entry): as above

On to `O=C(/C=C/c1ccc(O)c(O)c1)O[C@@H]1C[C@](OC(=O)/C=C/c2ccc(O)c(O)c2)(C(=O)O)C[C@@H](O)[C@H]1O` [1,5-dicaffeoylquinic acid], for which, in the assay with α-amylase, the “inhibitory activity on α-amylase, times higher than acarbose” value (“inhibitory activity on α-amylase” below) is given as 6.2 times.
As to `O=C(/C=C/c1ccc(O)c(O)c1)O[C@@H]1[C@H](O)C[C@@](O)(C(=O)O)C[C@H]1OC(=O)/C=C/c1ccc(O)c(O)c1` [3,4-dicaffeoylquinic acid], the “inhibitory activity on α-amylase” value in the assay on α-amylase is recorded as 7.2 times.
Consider `O=C(/C=C/c1ccc(O)c(O)c1)O[C@@H]1CC(O)(C(=O)O)C[C@@H](OC(=O)/C=C/c2ccc(O)c(O)c2)C1O` (stereo partly drawn) [3,5-dicaffeoylquinic acid], for which the “inhibitory activity on α-amylase” value with α-amylase was 9.4 times.
In the case of `O=C(/C=C/c1ccc(O)c(O)c1)O[C@H]1[C@H](O)C[C@](O)(C(=O)O)C[C@H]1OC(=O)/C=C/c1ccc(O)c(O)c1` [4,5-dicaffeoylquinic acid], the “inhibitory activity on α-amylase” value in the assay on α-amylase was 11.4 times.
`C[C@H]1O[C@H](O[C@H]2[C@H](O)[C@@H](O)[C@@H](O[C@H]3[C@H](O)[C@@H](O)C(O)O[C@@H]3CO)O[C@@H]2CO)[C@H](O)[C@@H](O)[C@@H]1N[C@H]1C=C(CO)[C@@H](O)[C@H](O)[C@H]1O` (stereo partly drawn) [Acarbose, acarbose]: the Inhibition type entry in assay [1] (best-fitting model) is recorded as “Competitive (full)”. In addition, the maximum rate (Vmax) in assay [1] (α-glucosidase in the presence of the inhibitor) worked out at 0.00182 mM/min. Further, the “α-glucosidase fluorescence intensity with increasing concentrations” value at α-glucosidase [2] is on record as “less obvious effect”.
With `O=C(/C=C/c1ccc(O)c(O)c1)O[C@@H]1C[C@](O)(C(=O)O)C[C@@H](O)[C@H]1O` [Chlorogenic acid], the α-glucosidase inhibition mechanism entry with α-glucosidase [3] is recorded as “mixed”.
Consider `CC1OC(OC2C(O)COC(OC3C(C)OC(OC4C(OC(=O)C56CCC(C)(C)CC5C5=CCC7C8(C)CCC(OC9OC(CO)C(O)C(O)C9O)C(C)(CO)C8CCC7(C)C5(C)CC6O)OCC(O)C4O)C(O)C3O)C2O)C(O)C(O)C1O` (stereo not drawn) [Chrysanthellin B], for which the “inhibitory effect on α-glucosidase relative to acarbose” value in assay [4] is “five times lower”. Besides, the IC50 in assay [4] (PNPg substrate, pH 6.8, 37 °C, read-out: IC50 α-Glucosidase (converted)) is 127 µM.
For `O=c1cc(-c2ccc(O)c(O)c2)oc2cc(O)cc(O)c12` [Luteolin], half-maximal inhibition in assay [4] (IC50) was put at 1.4 µM. Also, the α-glucosidase inhibition mechanism entry with α-glucosidase [3] is recorded as “non-competitive”.
Take `CC1(C)CC[C@]2(C(=O)O)CC[C@]3(C)C(=CC[C@@H]4[C@@]5(C)CC[C@H](O)C(C)(C)[C@@H]5CC[C@]43C)[C@@H]2C1` [Oleanolic acid]: the “inhibitory activity on α-glucosidase, times higher than acarbose” value in the assay on α-glucosidase [3] is reported as 162 times.
On to `C/C=C1/[C@H](O[C@@H]2O[C@H](CO)[C@@H](O)[C@H](O)[C@H]2O)OC=C(C(=O)OC)[C@H]1CC(=O)OCCc1ccc(O)c(O)c1` [Oleuropein], for which half-maximal inhibition in assay [4] (IC50) required 5.74 µM.
As to `O=C(/C=C/C=C/c1ccc2c(c1)OCO2)N1CCCCC1` [Piperine], the α-glucosidase inhibition mechanism entry with α-glucosidase [3] is “mixed”.
Turning to `O=C(/C=C/c1ccc(O)c(O)c1)O[C@@H]1C[C@@](OC(=O)/C=C/c2ccc(O)c(O)c2)(C(=O)O)C[C@@H](O)[C@@H]1O` [cynarin], the “inhibitory activity on α-amylase” value in the assay on α-amylase is recorded as 4.8 times.
For `O=C1C[C@@H](c2ccc(O)c(O)c2)Oc2cc(O)cc(O)c21` [eriodictyol], the “lipase inhibitory activity relative to orlistat” value in the assay with lipase is “more than two times higher”.
As to `O=c1cc(-c2ccc(O)c(O)c2)oc2cc(O[C@@H]3O[C@H](CO)[C@@H](O)[C@H](O)[C@H]3O)cc(O)c12` [luteolin-7-O-glucoside], in the assay with lipase, the “lipase inhibitory activity relative to orlistat” value is listed as “more than two times higher”.
